Data: patent US7323447B2, “Hepatitis C virus inhibitors” (Bristol-Myers Squibb Company, priority 2005, dated 2008)

What was measured:
[1] = test system: HCV replicon (Renilla luciferase) in HUH-7 cells; assay: HCV replicon luciferase reporter assay; type: cell-based, Hepatitis C virus (strain 1b); conditions: Huh-7, 96 h, 4 days
Excerpt: As a secondary assay, EC50 determinations from the replicon FRET assay were confirmed in a replicon luciferase reporter assay. Utilization of a replicon luciferase reporter assay was first described by Krieger et al (Krieger N, Lohmann V, and Bartenschlager R, J. Virol. 75(10):4614-4624 (2001)). The replicon construct described for our FRET assay was modified by inserting cDNA encoding a humanized form of the Renilla luciferase gene and a linker sequence fused directly to the 3′-end of the luciferase gene. This insert was introduced into the replicon construct using an Asc1 restriction site located in core, directly upstream of the neomycin marker gene. The adaptive mutation at position 1179 (serine to isoleucine) was also introduced (Blight K J, Kolykhalov, A A, Rice, C M, Science 290(5498): 1972-1974). A stable cell line constitutively expressing this HCV replicon construct was generated as described above. […] Following 4 days in a 37° C./5% CO2 incubator, cells were analyzed for Renilla Luciferase activity using the Promega Dual-Glo Luciferase Assay System. […] Plates were read on a Packard TopCount NXT using a luminescence program.
The percentage inhibition was calculated using the formula below: […]
The values were graphed and analyzed using XLfit to obtain the EC50 value.

[2] = target: T1, human neutrophil elastase (HNE) (Homo sapiens, UniProt P08246); assay: Specificity assay, human neutrophil elastase; type: biochemical; conditions: read-out: HLE activity in the specificity assays (IC50)
T1 construct: purchased Sigma or EMDbiosciences
T1 sequence (P08246 30-267): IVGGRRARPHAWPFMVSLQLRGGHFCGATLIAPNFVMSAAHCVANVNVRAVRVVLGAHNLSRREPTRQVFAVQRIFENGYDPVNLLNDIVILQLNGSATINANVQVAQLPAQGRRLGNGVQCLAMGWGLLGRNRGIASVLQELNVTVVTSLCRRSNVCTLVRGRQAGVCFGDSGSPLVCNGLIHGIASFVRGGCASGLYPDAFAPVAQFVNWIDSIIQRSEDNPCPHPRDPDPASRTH
Protocol: (§1) The specificities of compounds of the present disclosure were determined against a variety of serine proteases: human neutrophil elastase (HNE), porcine pancreatic elastase (PPE) and human pancreatic chymotrypsin and one cysteine protease: human liver cathepsin B. In all cases, a 96-well plate format protocol using colorimetric p-nitroaniline (pNA) substrate or fluorometric Amino-Methyl-Coumarin (AMC) substrate, specific for each enzyme was used as described previously (PCT Patent Application No. WO 00/09543) with some modifications. All enzymes were purchased from Sigma or EMDbiosciences while the substrates were from Bachem.
(§2) Each pNA assay included a 2 hours enzyme-inhibitor pre-incubation at room temperature followed by addition of substrate and hydrolysis to ˜15% conversion as measured on a Spectramax Pro microplate reader. The cathepsin B assay was initiated by adding substrate to a 10 min enzyme-inhibitor pre-incubation at room temperature, and the assay plate measured immediately using the Cytofluor Series 4000. Compound concentrations varied from 100 to 0.4 μM depending on their potency. […]
(§3) The percentage of inhibition was calculated using the formula: [1−((UVinh−UVblank)/(UVctl−UVblank))]×100 […]

[3] = target: T2, porcine pancreatic elastase (PPE) (Sus scrofa, UniProt P00772); assay: Specificity assay, porcine pancreatic elastase; type: biochemical; conditions: read-out: PPE activity in the specificity assays (IC50)
T2 construct: purchased Sigma or EMDbiosciences
T2 sequence (P00772 27-266): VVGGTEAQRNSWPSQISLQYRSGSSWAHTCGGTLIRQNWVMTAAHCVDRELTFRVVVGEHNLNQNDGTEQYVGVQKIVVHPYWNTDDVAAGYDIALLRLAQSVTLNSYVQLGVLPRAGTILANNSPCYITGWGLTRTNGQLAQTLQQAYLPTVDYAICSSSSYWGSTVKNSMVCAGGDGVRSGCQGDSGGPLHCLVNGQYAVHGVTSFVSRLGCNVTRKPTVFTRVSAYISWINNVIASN
Protocol: as §1, §2, §3

[4] = target: T3, human pancreatic chymotrypsin (Homo sapiens, UniProt P17538); assay: Specificity assay, chymotrypsin; type: biochemical; conditions: read-out: Chymotrypsin activity in the specificity assays (IC50)
T3 construct: purchased Sigma or EMDbiosciences
T3 sequence (P17538 19-263): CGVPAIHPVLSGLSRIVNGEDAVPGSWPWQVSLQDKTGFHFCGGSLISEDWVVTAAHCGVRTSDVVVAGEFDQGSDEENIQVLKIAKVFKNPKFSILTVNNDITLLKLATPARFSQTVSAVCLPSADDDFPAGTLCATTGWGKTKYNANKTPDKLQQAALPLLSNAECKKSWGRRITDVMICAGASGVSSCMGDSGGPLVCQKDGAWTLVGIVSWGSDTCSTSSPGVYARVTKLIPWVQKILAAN
Protocol: as §1, §2, §3

human liver cathepsin B = target: T4, human liver cathepsin B (Homo sapiens, UniProt P07858); assay: Specificity assay, cathepsin B; type: biochemical; conditions: read-out: Cathepsin B activity in the specificity assays (IC50)
T4 construct: purchased Sigma or EMDbiosciences; host or cells: human liver
Protocol: as §1, §2, §3

In the case of `C=C[C@@H]1C[C@]1(NC(=O)[C@@H]1C[C@@H](OC(=O)N2Cc3cccc(F)c3C2)CN1C(=O)[C@@H](OC(=O)NC(C)(C)C)C(C)(C)C)C(=O)NS(=O)(=O)C1CC1` [Example 56Compound 56], the EC50 [1] is reported as 0.247 µM, the IC50 [2] is reported as > 100 µM and the IC50 [3] is reported as > 100 µM. For the same compound, the IC50 [4] was > 100 µM and the IC50 (human liver cathepsin B) was > 100 µM.
